Source: PubChem BioAssay AID192 (DTP/NCI, 2004)
“And” between values parts separate entries of the source, which are not always exact repeats. Equal values may be shown once. Inconclusive results and toxic doses are left out. How the source made its calls: active means survival T/C of 150% or more; inactive means T/C below 125% in these data.

Tested on: BDF1 mice, B16 melanoma ip, median survival T/C
Test: NCI In Vivo Anticancer Drug Screen. Data for tumor model B16 Melanoma (intraperitoneal) in B6D2F1 (BDF1) mice
Details: endpoint: median survival time, higher = longer survival
Summary of the method: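 Read-out: survival or tumor size, given as treated/control ratio. Controls received vehicle only; animals bore transplantable tumors.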

[1] = dose: 25.0 mg/kg/injection, schedule: Q01DX009 (ip), vehicle: saline
[2] = dose: 50.0 mg/kg/injection, schedule: Q01DX009 (ip), vehicle: saline
[3] = dose: 3.12 mg/kg/injection, schedule: Q01DX009 (ip), vehicle: saline
[4] = dose: 6.25 mg/kg/injection, schedule: Q01DX009 (ip), vehicle: saline
[5] = dose: 12.5 mg/kg/injection, schedule: Q01DX009 (ip), vehicle: saline
[6] = dose: 100.0 mg/kg/injection, schedule: Q01DX009 (ip), vehicle: Klucel (hydroxypropylcellulose) (HPC)
[7] = dose: 200.0 mg/kg/injection, schedule: Q01DX009 (ip), vehicle: Klucel (hydroxypropylcellulose) (HPC)
[8] = dose: 400.0 mg/kg/injection, schedule: Q01DX009 (ip), vehicle: Klucel (hydroxypropylcellulose) (HPC)

Measured: T/C

C/C=C(\Cl)C1=CC(=O)C23CC2C2(C)COC1(O)C3(O)O2 (centres undefined)
inactive: dose: 0.75 mg/kg/injection, schedule: Q01DX009 (ip), vehicle: saline with Tween-80 91 % of control

CN1CCC=C(C(=O)N2c3ccccc3Sc3ccccc32)C1
inactive: [1] 102 % of control | [2] 96 % of control

CNCCCN1c2ccccc2CCc2ccccc21
inactive: [3] 105 % of control | dose: 6.25 mg/kg/injection, schedule: Q01DX009 (ip), vehicle: Klucel (hydroxypropylcellulose) (HPC) 106 % of control | [4] 96 % of control | dose: 12.5 mg/kg/injection, schedule: Q01DX009 (ip), vehicle: Klucel (hydroxypropylcellulose) (HPC) 101 % of control | [5] 102 % of control | dose: 25.0 mg/kg/injection, schedule: Q01DX009 (ip), vehicle: Klucel (hydroxypropylcellulose) (HPC) 100 % of control | [1] 87 % of control | dose: 50.0 mg/kg/injection, schedule: Q01DX009 (ip), vehicle: Klucel (hydroxypropylcellulose) (HPC) 86 % of control | [2] 101 % of control

COC1=C(O)C(C(O)CO)OC1=O (centres undefined)
inactive: dose: 100.0 mg/kg/injection, schedule: Q01DX009 (ip), vehicle: saline 99 % of control | dose: 200.0 mg/kg/injection, schedule: Q01DX009 (ip), vehicle: saline 110 % of control | dose: 400.0 mg/kg/injection, schedule: Q01DX009 (ip), vehicle: saline 108 % of control

C1CCc2nnnn2CC1
inactive: dose: 1.56 mg/kg/injection, schedule: Q04DX003 (ip), vehicle: saline 111 % of control | [3] 113 % of control | dose: 3.12 mg/kg/injection, schedule: Q04DX003 (ip), vehicle: saline 110 % of control | [4] 102 % of control | dose: 6.25 mg/kg/injection, schedule: Q04DX003 (ip), vehicle: saline 106 % of control | [5] 102 % of control | dose: 12.5 mg/kg/injection, schedule: Q04DX003 (ip), vehicle: saline 103 % of control | [1] 88 % of control | dose: 25.0 mg/kg/injection, schedule: Q04DX003 (ip), vehicle: saline 103 % of control and 111 % of control | dose: 50.0 mg/kg/injection, schedule: Q04DX003 (ip), vehicle: saline 105 % of control

CC(=O)c1cccc(NC(=O)Nc2ccccc2)c1
inactive: [6] 96 % of control | [7] 91 % of control | [8] 96 % of control

O=C1NC(c2ccc3ccccc3c2)Nc2ccccc21 (centres undefined)
inactive: [6] 96 % of control | [7] 103 % of control | [8] 90 % of control

Nc1ccc2ncccc2c1
inactive: [5] 111 % of control | [1] 105 % of control | [2] 109 % of control
